Measurements: ChEMBL document CHEMBL5096241, “Discovery of 3-Aminopyrazole Derivatives as New Potent and Orally Bioavailable AXL Inhibitors” (J Med Chem, 2022)

Key:
[1] = molecular target: T1, Tyrosine-protein kinase receptor UFO (Homo sapiens, UniProt P30530); experiment: Inhibition of recombinant AXL (unknown origin) using poly (Glu,Tyr) 4:1 as substrate incubated for 60 mins in presence of ATP by ELISA
T1 sequence (P30530 whole entry): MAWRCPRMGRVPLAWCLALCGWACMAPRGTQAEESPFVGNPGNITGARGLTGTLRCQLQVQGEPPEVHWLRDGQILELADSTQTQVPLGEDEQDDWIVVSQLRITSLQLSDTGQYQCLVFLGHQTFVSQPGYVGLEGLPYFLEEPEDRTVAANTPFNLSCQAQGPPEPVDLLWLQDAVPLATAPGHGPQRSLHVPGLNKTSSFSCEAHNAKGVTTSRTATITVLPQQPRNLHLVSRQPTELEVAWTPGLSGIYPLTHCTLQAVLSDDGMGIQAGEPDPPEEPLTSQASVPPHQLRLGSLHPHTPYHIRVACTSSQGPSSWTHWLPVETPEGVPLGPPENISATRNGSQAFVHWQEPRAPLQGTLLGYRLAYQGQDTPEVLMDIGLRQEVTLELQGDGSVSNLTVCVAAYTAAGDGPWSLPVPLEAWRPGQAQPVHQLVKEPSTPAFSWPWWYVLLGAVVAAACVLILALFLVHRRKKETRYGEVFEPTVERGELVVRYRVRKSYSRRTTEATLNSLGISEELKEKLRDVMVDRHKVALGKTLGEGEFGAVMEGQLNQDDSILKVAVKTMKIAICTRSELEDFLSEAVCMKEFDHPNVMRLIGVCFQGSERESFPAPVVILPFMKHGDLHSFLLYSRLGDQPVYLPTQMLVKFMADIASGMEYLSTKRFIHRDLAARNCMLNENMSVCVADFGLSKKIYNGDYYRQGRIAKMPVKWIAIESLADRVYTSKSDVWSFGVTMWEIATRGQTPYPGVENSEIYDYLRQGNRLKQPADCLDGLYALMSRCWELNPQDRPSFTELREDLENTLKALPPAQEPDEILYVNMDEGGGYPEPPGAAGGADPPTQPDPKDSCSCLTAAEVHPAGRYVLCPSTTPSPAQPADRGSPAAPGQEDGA

BaF3 = experiment: Antiproliferative activity against mouse BaF3 cells transfected with TEL-AXL assessed as inhibition of cell growth incubated for 72 hrs; assay type: functional, cell-based; details: BaF3, 72 h

Row | Structure (SMILES) | IC50 [1] | IC50 (BaF3)
1 | COc1cc2nccc(Oc3ccc(Nc4nn(C)cc4C(=O)NC4CCCCC4)cc3F)c2cc1OC | 11.4 nM | –
2 | COc1cc2nccc(Oc3ccc(Nc4nn(C)cc4C(=O)NC4CCC(F)(F)CC4)cc3F)c2cc1OC | 65.1 nM | –
3 | COc1cc2nccc(Oc3ccc(Nc4nn(C)cc4C(=O)Nc4ccc(OC(F)F)cc4)cc3F)c2cc1OC | 64.4 nM | –
4 | COc1cc2c(Oc3ccc(Nc4nn(C)cc4C(=O)NC4CCCCC4)cc3F)ccnc2cc1OCCCN(C)C | 3.2 nM | 11.6 nM
5 | COc1cc2nccc(Oc3ccc(Nc4nn(C)cc4C(=O)NC4CCCCC4)cc3OC)c2cc1OC | 40.4 nM | –
6 | COc1cc2nccc(Oc3ccc(Nc4nn(C)cc4C(=O)Nc4ccc(C)cc4)cc3F)c2cc1OC | 23.1 nM | –
7 | COc1cc2nccc(Oc3ccc(Nc4nn(C)cc4C(=O)NC4CC4)cc3F)c2cc1OC | 586 nM | –
8 | COc1cc2nccc(Oc3ccc(Nc4nn(C)cc4C(=O)Nc4ccc(OC(F)(F)F)cc4)cc3F)c2cc1OC | > 1000 nM | –
9 | COc1cc2nccc(Oc3ccc(Nc4nn(C)cc4C(=O)NC4CCOCC4)cc3F)c2cc1OC | 120 nM | –
10 | COc1cc2c(Oc3ccc(Nc4nn(C)cc4C(=O)NC4CCCCC4)cc3F)ccnc2cc1OCCCN1CCN(C)CC1 | 2.9 nM | 9 nM
11 | CNC(=O)c1cn(C)nc1Nc1ccc(Oc2ccnc3cc(OC)c(OC)cc23)c(F)c1 | > 1000 nM | –
12 | COc1cc2nccc(Oc3ccc(Nc4nn(C)cc4C(=O)Nc4cccc(F)c4)cc3F)c2cc1OC | 265 nM | –
13 | COc1cc2nccc(Oc3ccc(Nc4nn(C)cc4C(=O)NC(C)(C)C)cc3F)c2cc1OC | 142 nM | –
14 | COCCCOc1cc2nccc(Oc3ccc(Nc4nn(C)cc4C(=O)NC4CCCCC4)cc3F)c2cc1OC | 8.6 nM | –
15 | COc1cc2nccc(Oc3ccc(Nc4nn(C)cc4C(=O)NC4CCCCCCC4)cc3F)c2cc1OC | 12.5 nM | –
16 | COc1cc2nccc(Oc3ccc(Nc4nn(C)cc4C(=O)NC4CCCC4)cc3F)c2cc1OC | 27.4 nM | –
17 | COc1cc2nccc(Oc3ccc(Nc4nn(C)cc4C(=O)NC4C5CC6CC(C5)CC4C6)cc3F)c2cc1OC (stereo not given) | 13.2 nM | –
18 | Nc1nc(Nc2ccc3c(c2)CCC(N2CCCC2)CC3)nn1-c1cc2c(nn1)-c1ccccc1CCC2 (single isomer, unassigned) [BEMCENTINIB] | – | 98.8 nM
19 | COc1cc2nccc(Oc3ccc(Nc4nn(C)cc4C(=O)Nc4ccc(F)cc4)cc3F)c2cc1OC | 40.1 nM | –
20 | COc1ccc(NC(=O)c2cn(C)nc2Nc2ccc(Oc3ccnc4cc(OC)c(OC)cc34)c(F)c2)cc1 | 86.7 nM | –
21 | COc1cc2nccc(Oc3ccc(Nc4nn(C)cc4C(=O)N4CCCCC4)cc3F)c2cc1OC | > 1000 nM | –
22 | COc1cc2nccc(Oc3ccc(Nc4nn(C)cc4C(=O)Nc4ccc(C(C)C)cc4)cc3F)c2cc1OC | > 1000 nM | –
23 | COc1cc2nccc(Oc3ccc(Nc4nn(C)cc4C(=O)NC4CCCCC4)cc3)c2cc1OC | 35 nM | –
24 | COc1cc2c(Oc3ccc(Nc4nn(C)cc4C(=O)NC4CCCCC4)cc3F)ccnc2cc1OCCCN1CCCCC1 | 5.6 nM | –
25 | COc1cc2nccc(Oc3ccc(Nc4nn(C)cc4C(=O)NC4CCCCC4)cc3C)c2cc1OC | 40.4 nM | –
26 | COc1cc2nccc(Oc3ccc(Nc4nn(C)cc4C(=O)Nc4ccccc4)cc3F)c2cc1OC | 25.4 nM | –
27 | COCCOc1cc2nccc(Oc3ccc(Nc4nn(C)cc4C(=O)NC4CCCCC4)cc3F)c2cc1OC | 7.8 nM | –
28 | CCNC(=O)c1cn(C)nc1Nc1ccc(Oc2ccnc3cc(OC)c(OC)cc23)c(F)c1 | 238 nM | –
